Assay results reported in patent EP3118202A1, “DIHYDROPYRIDOPYRROLE DERIVATIVES AS TAU-PET-LIGANDS” (AC Immune S.A., priority 2015, dated 2017).

Legend:
[1] = test system: tau tangles/Aβ plaques on AD brain sections; experiment: Direct staining of human Alzheimer's disease brain sections (Assay 1, fluorescence based assay); assay type: binding; set-up: key to Direct staining of tau tangles/Aβ plaques on AD brain sections at 100 µM: - (No); +++ (strong); ++ (good); + (weak); conditions: for Direct staining of tau tangles/Aβ plaques on AD brain sections at 100 µM: 100 µM in 50% ethanol in water, 20 min, room temperature, frozen amygdala sections, Braak stage V-VI; for Direct staining of tau tangles/Aβ plaques on AD brain sections at 100 µM: structure stained: structure (tangles or plaques) that was stained
Protocol: Assay 1 (Fluorescence based assay):
Direct binding of compounds of this invention to human Alzheimer's disease brain sections
Frozen sections with a thickness of […] from the amygdala of donors diagnosed with Braak stage V-VI Alzheimer's Disease (Braak, H.; Braak, E. Acta Neuropathol., 1991, 82, 239-259), were purchased from a commercial provider (Tissue Solutions) and kept at -80°C until use.
Direct staining of human Alzheimer's disease brain sections
Brain sections were encircled with pap pen liquid blocker to reduce the volume of solution for the different incubations. Sections were fixed for 15 min at 4°C with 4% paraformaldehyde and washed three times 5 minutes with PBS at room temperature. Test compounds were incubated on the sections at 100 µM in 50% ethanol in water for 20 min at room temperature in the dark and then washed three times 5 minutes with PBS. To reduce the auto-fluorescence of the tissue, the sections were incubated in a solution of 0.1% Sudan Black (Sigma 199664) in 70% ethanol for 15 min at room temperature in the dark, washed four times for 5 minutes with PBS, and mounted using ProLong Gold Antifade reagent (Invitrogen P36930). Sections were then analyzed on the Nikon Eclipse Ti microscope to detect staining and imaged using Nikon DS-Fi2 camera and NIS-Element AR4.13.1 software.

[2] = molecular target: T1, MAO-A human - recombinant (Homo sapiens, UniProt P21397); experiment: Monoamine oxidase A (MAO-A) assay (MAO-Glo Assay); assay type: biochemical; conditions: MAO substrate 40 µM; 1 hour at room temperature; read-out: MAO A binding
T1 construct: purchased Sigma-Aldrich M7316
T1 sequence (P21397 1-527): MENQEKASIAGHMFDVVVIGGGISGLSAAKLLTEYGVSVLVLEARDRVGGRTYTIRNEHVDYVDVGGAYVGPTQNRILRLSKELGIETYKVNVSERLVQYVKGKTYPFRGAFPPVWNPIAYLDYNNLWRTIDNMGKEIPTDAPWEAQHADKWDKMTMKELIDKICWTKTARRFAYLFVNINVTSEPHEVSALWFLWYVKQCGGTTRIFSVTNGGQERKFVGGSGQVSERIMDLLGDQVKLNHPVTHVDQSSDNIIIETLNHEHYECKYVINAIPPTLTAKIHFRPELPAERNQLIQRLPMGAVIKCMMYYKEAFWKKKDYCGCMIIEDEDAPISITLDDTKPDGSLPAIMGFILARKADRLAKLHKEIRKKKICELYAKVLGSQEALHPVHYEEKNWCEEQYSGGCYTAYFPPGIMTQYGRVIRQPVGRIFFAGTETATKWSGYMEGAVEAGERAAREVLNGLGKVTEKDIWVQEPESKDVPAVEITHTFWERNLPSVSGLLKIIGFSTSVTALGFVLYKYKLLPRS
Protocol: Monoamine oxidase A (MAO-A) assay
Compounds were tested for their capacity to modulate MAO-A activity within the MAO-Glo™ Assay (Promega, Cat.# V1402). In each well of a 96-well plate, 12.5 µl of 4X MAO Substrate solution (end-concentration in assay: 40 µM) were mixed with 12.5 µl of a 4X solution of the corresponding test compound (end-concentrations ranged from 10 µM to 1.37 nM). In the absence of a test compound (i.e. to gauge the total MAO-A activity), the corresponding volume of MAO Reaction Buffer (100 mM HEPES (pH 7.5), 5% glycerol) was added. To initiate the MAO reaction, 25 µl of 2X MAO-A enzyme solution (MAO-A human - recombinant, Sigma-Aldrich, Cat.# M7316; 1 µg MAO-A enzyme/25 µl MAO Reaction Buffer) were added per well and mixed briefly. For negative control reactions, 25µl of MAO Reaction Buffer were added. Thereafter the plate was incubated at room temperature for 1 hour, following which, 50 µl of reconstituted Luciferin Detection Reagent were added per well and mixed briefly. The plate was then incubated at room temperature for 20 minutes to generate and stabilize the luminescent signal. The luminescent signal was subsequently measured and recorded on the TopCountNXT™ luminescence counter (PerkinElmer). Data were analyzed and graphs were prepared using the Graphpad Prism 6 software.

[3] = molecular target: T2, MAO-B human - recombinant (Homo sapiens, UniProt P27338); experiment: MAO-B assay (MAO-Glo Assay); assay type: biochemical; conditions: MAO substrate 4 µM; 1 hour at room temperature; read-out: MAO B binding
T2 construct: purchased Sigma-Aldrich M7441
T2 sequence (P27338 1-520): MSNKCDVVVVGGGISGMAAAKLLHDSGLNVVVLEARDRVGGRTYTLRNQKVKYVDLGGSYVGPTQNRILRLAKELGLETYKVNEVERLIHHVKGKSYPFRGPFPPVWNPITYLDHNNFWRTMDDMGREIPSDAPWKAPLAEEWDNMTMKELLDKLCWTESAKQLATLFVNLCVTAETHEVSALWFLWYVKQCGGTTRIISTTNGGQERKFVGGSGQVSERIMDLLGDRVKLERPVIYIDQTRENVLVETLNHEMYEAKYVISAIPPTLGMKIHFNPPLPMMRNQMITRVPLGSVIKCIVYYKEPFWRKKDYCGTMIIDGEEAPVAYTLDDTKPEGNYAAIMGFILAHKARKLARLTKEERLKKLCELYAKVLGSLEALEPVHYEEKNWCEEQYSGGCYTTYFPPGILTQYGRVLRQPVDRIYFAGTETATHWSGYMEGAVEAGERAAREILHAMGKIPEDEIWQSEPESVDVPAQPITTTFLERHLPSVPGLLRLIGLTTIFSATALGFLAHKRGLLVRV
Protocol: Compounds were tested for their capacity to modulate MAO-B activity within the MAO-Glo™ Assay (Promega, Cat.# V1402). In each well of a 96-well plate, 12.5 µl of 4X MAO Substrate solution (end-concentration in assay: 4 µM) were mixed with 12.5 µl of a 4X solution of the corresponding test compound (end-concentrations ranged from 10 µM to 1.37 nM). In the absence of a test compound (i.e. to gauge the total MAO-B activity), the corresponding volume of MAO-B Reaction Buffer (100 mM HEPES (pH 7.5), 5% glycerol, 10% dimethyl sulphoxide) was added. To initiate the MAO reaction, 25 µl of 2X MAO-B enzyme solution (MAO-B human - recombinant, Sigma-Aldrich, Cat.# M7441; 1 µg MAO-B enzyme/25 µl MAO-B Reaction Buffer) were added per well and mixed briefly. For negative control reactions, 25µl of MAO-B Reaction Buffer were added. Thereafter the plate was incubated at room temperature for 1 hour, following which, 50 µl of reconstituted Luciferin Detection Reagent were added per well and mixed briefly. The plate was then incubated at room temperature for 20 minutes to generate and stabilize the luminescent signal. The luminescent signal was subsequently measured and recorded on the TopCountNXT™ luminescence counter (PerkinElmer). Data were analyzed and graphs were prepared using the Graphpad Prism 6 software.

Cn1c2ccncc2c2ccc(N3CCC(COCCF)CC3)nc21 [Example 14]
Direct staining of tau tangles/Aβ plaques on AD brain sections at 100 µM [1]: -

Cn1c2ccncc2c2ccc(N3CCC(OCC(O)CF)CC3)nc21 (stereo not drawn) [Example 5]
Direct staining of tau tangles/Aβ plaques on AD brain sections at 100 µM [1]: ++
Direct staining of tau tangles/Aβ plaques on AD brain sections at 100 µM: structure stained [1]: (tangles)
IC50 [2]: 430 nM
IC50 [3]: > 1000 nM

CCn1c2ccncc2c2ccc(N3CCC(OCC(O)CF)CC3)nc21 (stereo not drawn) [Example 6]
Direct staining of tau tangles/Aβ plaques on AD brain sections at 100 µM [1]: ++
Direct staining of tau tangles/Aβ plaques on AD brain sections at 100 µM: structure stained [1]: (tangles)

Cn1c2ccncc2c2ccc(N3CCN(CC(O)CF)CC3)nc21 (stereo not drawn) [Example 12]
Direct staining of tau tangles/Aβ plaques on AD brain sections at 100 µM [1]: +
Direct staining of tau tangles/Aβ plaques on AD brain sections at 100 µM: structure stained [1]: (tangles)
IC50 [2]: 940 nM
IC50 [3]: > 1000 nM

Cn1c2ccncc2c2ccc(N3CCOC(CCF)C3)nc21 (stereo not drawn) [Example 16]
Direct staining of tau tangles/Aβ plaques on AD brain sections at 100 µM [1]: -

OC(CF)COC1CCN(c2ccc3c(n2)[nH]c2ccncc23)CC1 (stereo not drawn) [Example 10]
IC50 [2]: 790 nM
IC50 [3]: > 1000 nM

Cn1c2ccncc2c2ccc(N3CC4CC(C3)C4OCCF)nc21 (stereo not drawn) [Example 13]
Direct staining of tau tangles/Aβ plaques on AD brain sections at 100 µM [1]: ++
Direct staining of tau tangles/Aβ plaques on AD brain sections at 100 µM: structure stained [1]: (tangles)

CCn1c2ccncc2c2ccc(N3CCC(OCCF)CC3)nc21 [Example 1]
Direct staining of tau tangles/Aβ plaques on AD brain sections at 100 µM [1]: -

CN(CCF)C1CCN(c2ccc3c4cnccc4n(C)c3n2)CC1 [Example 3]
Direct staining of tau tangles/Aβ plaques on AD brain sections at 100 µM [1]: -
